Read-outs that look alike come from different tables or passages of the source.
Assays:
[1] = tested on: Leishmania donovani axenic amastigote parasites; experiment: Leishmania donovani axenic amastigote proliferation assay; assay type: cell-based; conditions: axenic amastigotes in vitro, read-out: L. donovani amastigotes EC50
In short: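 L. donovani axenic amastigotes (9600/well) in RPMI 1640 with 20% heat-inactivated FBS, folic acid, adenosine, glucose and 25 mM MES, pH 5.5, were incubated with compounds for 2 days at 37 °C, 5% CO2. Viability read by CellTiter-Glo luminescence; EC50 calculated.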

[2] = tested on: L. donovani HU3 strain in mouse peritoneal macrophages; experiment: Assay for proliferation of Leishmania parasites in mouse peritoneal macrophages; assay type: cell-based, Leishmania donovani; conditions: Leishmania donovani, Peritoneal macrophage
In short: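 BALB/c peritoneal macrophages infected 24 h with L. donovani HU3 amastigotes taken from spleens of mice infected 9–11 weeks, then treated with compound for 5 days at 37° C, 5% CO2. Parasite nuclei counted by SYBR Green imaging after fixation; EC50 from percentage inhibition.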

[3] = tested on: Trypanosoma brucei Lister 427 strain bloodstream form; experiment: Assay for proliferation of kinetoplastid parasite Trypanosoma brucei; assay type: cell-based; conditions: Lister 427 bloodstream form, 48 hours, read-out: T. brucei EC50
Description: Assay for Proliferation of Kinetoplastid Parasite Trypanosoma brucei.
The proliferation is quantified by the addition of Cell Titer Glo (Promega®) a luminescent cell viability assay that measures the number of viable cells in culture based on the quantification of cellular ATP amount, which is an indicator of metabolically active cells.
The following assay illustrates the invention without in any way limiting the scope of the invention. This parasite proliferation assay measures the increase in parasite growth using an assay that measures ATP activity, Cell Titer Glo®.
Trypanosoma brucei Lister 427 strain is grown in HMI-9 Trypanosome media for T. brucei bloodstream form. 30 μl of HMI-9 media is dispensed into 384 well assay plates. 200 nl of compounds of the invention (in DMSO), including anti-trypanosome controls (Pentamidine and suramin), are then transferred into the assay plates, as well as DMSO alone to serve as a negative control for inhibition. Then 25 μl of a suspension of T. brucei culture in HMI-9 media is dispensed into the assay plates. The final concentration of parasites in culture corresponds to 1.7% of 0.5 uM ATP activity with Cell Titer Glo® in HMI-9 media. The plates are placed in a 37° C. incubator for 48 hours in an atmospheric environment containing 5% CO2. 40 μl of Cell Titer Glo® is dispensed into the plates. The plates are then read for luminescence. The percentage inhibition of 50%, EC50, is calculated for each compound.

[4] = read-out: L. donavani Macrophage EC50
[5] = read-out: L. donavani Macrophage EC50 (μM)

SMILES | EC50 [1] | EC50 [2, 4] | EC50 [3] | EC50 [2, 5]
O=C(Nc1ccc(Cl)c(-c2nc3ncc(-c4ccc(OCCN5CCOCC5)nc4)cc3[nH]2)c1)c1ccco1 [Compound 11] | 0.55 µM | 0.46 µM | 0.0064 µM | –
N#Cc1ccc(-c2cnc3nc(-c4cc(NC(=O)c5ccco5)ccc4Cl)[nH]c3c2)cc1 [Compound 20] | 0.239 µM | 1.78 µM | 0.054 µM | –
O=C(Nc1ccc(Cl)c(-c2nc3ncc(-c4ccc(OCCN5CCCCC5)cc4)cc3[nH]2)c1)c1ccco1 [Compound 21] | 16 µM | 2.8 µM | 0.063 µM | –
COc1cc(-c2cnc3nc(-c4cc(NC(=O)c5ccco5)ccc4Cl)[nH]c3c2)ccc1NC(=O)OC(C)(C)C [Compound 34] | 0.6 µM | 1.79 µM | 0.105 µM | –
O=C(Nc1ccc(Cl)c(-c2nc3ncc(-c4ccc(OCC5CC5)cc4)cc3[nH]2)c1)c1ccco1 [Compound 36] | 1.03 µM | 2.27 µM | 0.188 µM | –
O=C1Cc2cc(-c3cnc4nc(-c5cc(NC(=O)c6ccco6)ccc5Cl)[nH]c4c3)ccc2N1 [Compound 43] | 0.73 µM | 6.9 µM | 0.0216 µM | –
CS(=O)(=O)c1ccc(-c2cnc3nc(-c4cc(NC(=O)c5ccco5)ccc4Cl)[nH]c3c2)cc1 [Compound 46] | 0.5 µM | 1.33 µM | 0.037 µM | –
COc1ccc(-c2cnc3nc(-c4cc(NC(=O)c5ccco5)ccc4Cl)[nH]c3c2)cc1Cl [Compound 48] | 0.53 µM | 8 µM | 0.076 µM | –
COc1ccc(-c2cnc3nc(-c4cc(NC(=O)c5ccco5)ccc4Cl)[nH]c3c2)cc1S(=O)(=O)N1CCCC1 [Compound 49] | 0.44 µM | 1.05 µM | 0.0067 µM | –
O=C(Nc1ccc(Cl)c(-c2nc3ncc(-c4ccnc(F)c4)cc3[nH]2)c1)c1ccco1 [Compound 51] | 0.175 µM | 0.56 µM | 0.0193 µM | –
CN1CCc2cc(-c3cnc4nc(-c5cc(NC(=O)c6ccco6)ccc5Cl)[nH]c4c3)ccc21 [Compound 59] | 1.34 µM | 3.7 µM | 0.143 µM | –
COc1ccc(-c2cnc3nc(-c4cc(NC(=O)c5ccco5)ccc4Cl)[nH]c3c2)c(OC)n1 [Compound 61] | 1.13 µM | 3.2 µM | 0.182 µM | –
CC(C)N1CCN(c2ccc(-c3cnc4nc(-c5cc(NC(=O)c6ccco6)ccc5Cl)[nH]c4c3)cc2)CC1 [Compound 62] | 19.2 µM | 9.4 µM | 0.52 µM | –
CN(C)CCOc1ccc(-c2cnc3nc(-c4cc(NC(=O)c5ccco5)ccc4Cl)[nH]c3c2)cc1 [Compound 69] | 18.1 µM | 2.74 µM | 0.1 µM | –
CN1CCOc2cc(-c3cnc4nc(-c5cc(NC(=O)c6ccco6)ccc5Cl)[nH]c4c3)ccc21 [Compound 72] | 0.67 µM | 3.2 µM | 0.073 µM | –
Cc1cnc2nc(-c3cc(NC(=O)c4cc(C)on4)ccc3Cl)[nH]c2c1 [Compound 79] | > 25 µM | > 50 µM | 12.5 µM | –
Cc1cnc2nc(-c3cc(NC(=O)c4nc(C)cs4)ccc3Cl)[nH]c2c1 [Compound 80] | 5.9 µM | 18.5 µM | 0.61 µM | –
Cc1cnc2nc(-c3cc(NC(=O)C(C)(C)c4ccc(Cl)cc4)ccc3Cl)[nH]c2c1 [Compound 81] | > 25 µM | 16.9 µM | 10.8 µM | –
Cc1cnc2nc(-c3cc(NC(=O)Cc4ccc(N(C)C)cc4)ccc3Cl)[nH]c2c1 [Compound 82] | > 25 µM | > 38.5 µM | > 14.1 µM | –
Cc1cnc2nc(-c3cc(NC(=O)Cc4c(F)cccc4F)ccc3Cl)[nH]c2c1 [Compound 87] | > 25 µM | 24.4 µM | > 6.9 µM | –
Cc1cnc2nc(-c3cc(NC(=O)c4ncc[nH]4)ccc3Cl)[nH]c2c1 [Compound 95] | > 25 µM | > 50 µM | > 14.4 µM | –
Cc1cnc2nc(-c3cc(NC(=O)Cc4ccc(C(F)(F)F)cc4)ccc3Cl)[nH]c2c1 [Compound 96] | > 25 µM | 20.7 µM | 8.9 µM | –
Cc1cnc2nc(-c3cc(NC(=O)Cc4cccnc4)ccc3Cl)[nH]c2c1 [Compound 97] | > 25 µM | > 50 µM | > 18.7 µM | –

SMILES | EC50 [1] | EC50 [2, 4] | EC50 [3] | EC50 [2, 5]
Cc1cnc2nc(-c3cc(NC(=O)c4nnc(C)o4)ccc3Cl)[nH]c2c1 [Compound 106] | > 25 µM | > 50 µM | 13.3 µM | –
Cc1cnc2nc(-c3cc(NC(=O)c4csc(C)n4)ccc3Cl)[nH]c2c1 [Compound 107] | 5.5 µM | 21.5 µM | 0.51 µM | –
COc1ccccc1C(=O)Nc1ccc(Cl)c(-c2nc3ncc(C)cc3[nH]2)c1 [Compound 108] | > 25 µM | 16.3 µM | 8.3 µM | –
Cc1cnc2nc(-c3cc(NC(=O)c4ccc(N5CCOCC5)cc4)ccc3Cl)[nH]c2c1 [Compound 109] | > 24.4 µM | > 19.1 µM | 15.1 µM | –
Cc1cnc2nc(-c3cc(NC(=O)c4ccc(S(C)(=O)=O)cc4Cl)ccc3Cl)[nH]c2c1 [Compound 110] | > 25 µM | 23.8 µM | > 13.6 µM | –
Cc1cnc2nc(-c3cc(NC(=O)C(C)(C)NC(=O)OC(C)(C)C)ccc3Cl)[nH]c2c1 [Compound 111] | > 25 µM | > 50 µM | > 13.6 µM | –
Cc1cnc2nc(-c3cc(NC(=O)CNC(=O)OC(C)(C)C)ccc3Cl)[nH]c2c1 [Compound 112] | > 25 µM | > 50 µM | > 24.1 µM | –
Cc1cnc2nc(-c3cc(NC(=O)c4cocn4)ccc3Cl)[nH]c2c1 [Compound 113] | 15.3 µM | 26.4 µM | 1.68 µM | –
Cc1cnc2nc(-c3cc(NC(=O)Cc4ccc(F)cc4F)ccc3Cl)[nH]c2c1 [Compound 114] | > 25 µM | > 41.5 µM | > 11.9 µM | –
Cc1cnc2nc(-c3cc(NC(=O)c4ccc(C(F)(F)F)cn4)ccc3Cl)[nH]c2c1 [Compound 115] | 16.8 µM | 25.3 µM | 2.6 µM | –
Cc1cnc2nc(-c3cc(NC(=O)CN)ccc3Cl)[nH]c2c1 [Compound 116] | > 25 µM | > 50 µM | > 25 µM | –
Cc1cnc2nc(-c3cc(NC(=O)C4CC(F)(F)C4)ccc3Cl)[nH]c2c1 [Compound 117] | > 25 µM | > 50 µM | > 13.5 µM | –
Cc1cnc2nc(-c3cc(NC(=O)C4CCC4)ccc3Cl)[nH]c2c1 [Compound 118] | 11.1 µM | 21.8 µM | 3.2 µM | –
Cc1cnc2nc(-c3cc(NC(=O)C(C)c4ccc(F)cc4)ccc3Cl)[nH]c2c1 (stereo not shown) [Compound 119] | > 25 µM | 24.2 µM | > 16.2 µM | –
Cc1cnc2nc(-c3cc(NC(=O)COc4ccccc4)ccc3Cl)[nH]c2c1 [Compound 120] | > 25 µM | > 50 µM | 10.5 µM | –
Cc1cnc2nc(-c3cc(NC(=O)Cc4ccc(OC(F)(F)F)cc4)ccc3Cl)[nH]c2c1 [Compound 121] | > 25 µM | > 21.2 µM | > 17.3 µM | –
Cc1cnc2nc(-c3cc(NC(=O)Cn4cncn4)ccc3Cl)[nH]c2c1 [Compound 122] | > 25 µM | > 50 µM | > 25 µM | –
O=C(Nc1ccc(Cl)c(-c2nc3ncc(-c4ccccc4)cc3o2)c1)c1ccco1 [Example 416, N-(4-chloro-3-{6-phenyl-[1,3]oxazolo[4,5-b]pyridin-2-yl}phenyl)-furan-2-carboxamide] | 1.52 µM | – | – | 2.9 µM
Cc1cnc2nc(-c3cc(NC(=O)c4ccco4)ccc3Cl)oc2c1 [Example 418, N-(4-chloro-3-{6-methyl-[1,3]oxazolo[4,5-b]pyridin-2-yl}phenyl)-furan-2-carboxamide] | 1.51 µM | – | – | 8.4 µM
CCc1cnc2nc(-c3cc(NC(=O)c4ccco4)ccc3Cl)oc2c1 [Example 419, N-(4-chloro-3-{6-ethyl-[1,3]oxazolo[4,5-b]pyridin-2-yl}phenyl)-furan-2-carboxamide] | 0.36 µM | – | – | 2.46 µM
CN(C)c1ccc(F)c(-c2nc3ncc(-c4ccc(OCCN5CCOCC5)cc4)cc3o2)c1 [Example 420, 4-Fluoro-N,N-dimethyl-3-(6-{4-[2-(morpholin-4-yl)ethoxy]phenyl}-[1,3]oxazolo[4,5-b]pyridin-2-yl)aniline] | > 25 µM | – | – | > 50 µM
CNc1ccc(F)c(-c2nc3ncc(-c4ccc(OCCN5CCOCC5)cc4)cc3o2)c1 [Example 421, 4-Fluoro-N-methyl-3-(6-{4-[2-(morpholin-4-yl)ethoxy]phenyl}-[1,3]oxazolo[4,5-b]pyridin-2-yl)aniline] | > 25 µM | – | – | > 50 µM

— patent US9233961B2, “Compounds and compositions for the treatment of parasitic diseases” (Novartis AG, priority 2013, dated 2016)
